Consider three compounds from ChEMBL document CHEMBL1144267, “New conformationally locked bicyclic N,O-nucleoside analogues of antiviral drugs” (2005).

What all share (type): functional
Assay [1] relates to Human alphaherpesvirus 1. Nature of the assay: Antiviral efficacy in Vero cells infected with HSV-1 at concentration of 100 uM.
For assay [2], the system named is Human alphaherpesvirus 1. Nature of the assay: Antiviral efficacy in Vero cells infected with HSV-1 at concentration of 800 uM.
Assay [3] concerns Human alphaherpesvirus 1. Nature of the assay: Antiviral efficacy in Vero cells infected with HSV-1 at concentration of 200 uM.
In assay [4] the test system is Human alphaherpesvirus 1. Nature of the assay: Antiviral efficacy in Vero cells infected with HSV-1 at concentration of 400 uM.

As for `O=c1ccn(C2CC3CCCN3O2)c(=O)[nH]1` (configuration not stated), the Cells killed is reported as -41% with Human alphaherpesvirus 1 [1], -83% with Human alphaherpesvirus 1 [2], -55% with Human alphaherpesvirus 1 [3] and -70% in the assay with Human alphaherpesvirus 1 [4].
In the case of `Nc1ccn(C2CC3CCCN3O2)c(=O)n1` (configuration not stated), the Cells killed in the assay on Human alphaherpesvirus 1 [1] is given as -3%; with Human alphaherpesvirus 1 [2], -67%; in the assay on Human alphaherpesvirus 1 [3], -3%; with Human alphaherpesvirus 1 [4] it was -6%.
In the case of `Cc1cn(C2CC3CCCN3O2)c(=O)[nH]c1=O` (configuration not stated), the Cells killed was -5% with Human alphaherpesvirus 1 [1], -55% in the assay with Human alphaherpesvirus 1 [2], -10% in the assay on Human alphaherpesvirus 1 [3] and -12% in the assay on Human alphaherpesvirus 1 [4].
